Source: ChEMBL document CHEMBL5042474, “Structure-Guided Discovery of Potent and Selective DYRK1A Inhibitors” (J Med Chem, 2021)

Assays:
RS4-11 = assay: Antitumor activity against human RS4-11 cells xenografted in BALB/c nu/nu mouse assessed as reduction in DYRK1A autophosphorylation of S520 residue at 3.125 mg/kg, po measured after 6 hrs by western blotting analysis relative to control; type: functional; parameters: scale not given: the % may be the effect or the level left
[1] = target: T1, Dual specificity tyrosine-phosphorylation-regulated kinase 2 (Homo sapiens) (UniProt Q92630); assay: Residual activity of DYRK2 (unknown origin) at 10 nM using Ulight-MBP as substrate and ATP as co-substrate incubated for 40 mins and measured after 1 hr by TR-FRET assay relative to control; details: time 100.0 min
T1 sequence (whole entry): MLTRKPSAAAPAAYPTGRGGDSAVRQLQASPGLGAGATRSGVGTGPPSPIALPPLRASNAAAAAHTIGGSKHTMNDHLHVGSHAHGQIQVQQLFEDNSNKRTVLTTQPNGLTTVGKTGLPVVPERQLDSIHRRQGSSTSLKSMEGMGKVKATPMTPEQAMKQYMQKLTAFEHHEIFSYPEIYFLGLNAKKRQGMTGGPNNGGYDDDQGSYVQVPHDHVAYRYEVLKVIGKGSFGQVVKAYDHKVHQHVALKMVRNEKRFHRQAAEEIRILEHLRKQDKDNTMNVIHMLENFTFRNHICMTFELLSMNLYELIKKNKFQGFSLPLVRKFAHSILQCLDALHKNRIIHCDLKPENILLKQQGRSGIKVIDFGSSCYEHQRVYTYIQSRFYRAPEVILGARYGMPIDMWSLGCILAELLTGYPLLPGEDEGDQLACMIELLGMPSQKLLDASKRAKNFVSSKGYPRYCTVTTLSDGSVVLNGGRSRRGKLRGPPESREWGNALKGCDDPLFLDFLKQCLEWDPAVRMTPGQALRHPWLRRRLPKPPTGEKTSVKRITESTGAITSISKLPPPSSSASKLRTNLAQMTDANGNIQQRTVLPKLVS

A2780 = assay: Antitumour activity against human A2780 cells xenografted in Balb/c mouse assessed as tumor volume T/C at 9.5 mg/kg, po bid for 14 days relative to control; details: time 14 day

residual activity [1]: 1.6%
Structure (SMILES): Cc1nc2ccc(-c3cc(N)nc(N)c3)nc2n1C1CC1
Activity (RS4-11): 38%
T/C (A2780): 95%
